Each block holds one molecule with its values, some of them ahead of it.
Key:
[1] = test system: bovine pulmonary arteries (BPA); experiment: Isometric force generation to serotonin (5-HT) in organ cultured BPA rings; assay type: cell-based
Description: (§1) Organoid Culture Isolated Arteries for Heme Modulation. Intralobar BPA were isolated from slaughterhouse-derived bovine calf lungs, cleaned from surrounding tissue, and placed in 37° C. Dulbecco's Modified Eagle Medium (DMEM) containing 10% fetal bovine serum, penicillin, streptomycin, and fungizone (complete media). The arteries were isolated and cut into rings ˜2 mm in diameter and width, and the endothelium was removed by gentle rubbing of the lumen. Various compounds (i.e. ALA, FeSO4(Fe), deferoxamine) were added as described in the Results to various experimental groups, and these arteries were organ cultured overnight for 24 h in complete media in a 37° C.-5% CO2 incubator. Preliminary experiments on the time course for detection protoporphyrin IX accumulation and the effects of organ culture with doses of ALA in the 10-100 μM concentration range on contractile function, and minimizing the duration of organ culture were considerations that contributed to selecting the 24 h culture period used in this study.
Studies on the Regulation of Contractile Function. Following the overnight incubation, arterial rings were mounted on wire hooks attached to Grass (FT03) force displacement transducers for measurement of changes in isometric force. Tension was adjusted to 5 g, which is the optimal passive force for maximal contraction. Changes in force were recorded on a Grass polygraph (model 7), while vessels were incubated in 10-ml baths (Metro Scientific), which were individually thermostated (37° C.) in Krebs buffer gassed with 21% O2-5% CO2 (balance N2) in the absence of compounds used to modulate BPA protoporphyrin IX levels. Arteries were incubated for 1 h during which passive tension was adjusted to maintain 5 grams. The vessels were then depolarized with Krebs containing 123 mM KCl (High K^+) in place of NaCl, followed by re-equilibration with Krebs, prior to exposure to the experimental protocols. Following the wash with Krebs buffer after the High K^+ treatment, and a 30 min equilibration, BPA were then contracted with serotonin (5-HT) in a dose dependent manner to determine the response to this contractile agent. In some experiments, BPA were pretreated with the sGC inhibitor, 10 μM ODQ, for 15 min before contraction with serotonin. The effects of ODQ on relaxation to NO was determined by first contracting organ cultured control and ODQ-treated BPA with 1 μM 5-HT (after the initial exposure to increasing concentrations of 5-HT and a 30 min equilibration in Krebs).

[2] = test system: VASP serine-239 phosphorylation (cGMP-dependent protein kinase activation); experiment: Western blot of VASP serine-239 phosphorylation in BPA; assay type: cell-based, bovine
Description: Rings from studies on contractile function were snap-frozen in liquid nitrogen, crushed and homogenized in lysis buffer (50 mM Tris-HCl, pH 8.0, 150 mM NaCl, 1 mM EDTA, 1% Triton X-100, 0.5% sodium deoxycholate, 0.1% sodium dodecyl sulfate, 1% of a protease inhibitor cocktail (Sigma) and 1% of a phosphatase inhibitor cocktail (Sigma). The protease inhibitor cocktail included 4-(2-aminoethyl)benzenesulfonyl floride hydrocholride, aprotinin, bestatin hydrochloride, N-(trans-epoxsuccinyl)-L-leucine-4-guanidinobutylamide, leupeptine hemisulfate, pepstatin and the phosphatase inhibitor cocktail included sodium orthovandate, sodium molybdate, sodium tartarate, and imidazole. Protein concentration was determined and 30 μg of protein samples were prepared in electrophoresis sample buffer containing 3% SDS and 3% β-mercaptoethanol and were separated using a 12% gel SDS-PAGE electrophoresis. Membranes were blocked for 1 h in TBST-5% milk and incubated overnight with phospho-VASP antibodies (diluted 1:1000). Membranes were exposed to a secondary horse radish peroxidase linked antibody and visualized with an ECL kit (Amersham). The membranes were subsequently exposed to X-OMAT autoradiography paper (Kodak). Membranes were stripped with TRIS-HCl buffer with 100 mM β-mercaptoethanol at 50° C. for 30 min. Membranes were subsequently washed, blocked and detected for total VASP. Each measurement of phosphorylated VASP was normalized to the total level of VASP, and data are reported as the percent of the levels of phosphorylated VASP seen in control arteries not exposed to agents which modulate the activity of sGC. Expression of sGC was detected with β-sGC subunit antibodies (diluted 1:2000), employing anti-rabbit secondary antibodies, and a protocol where membranes were blocked for 2 h. After analyzing for sGC protein expression, blots were stripped and re-probed for the detection of α-actin protein levels, which were used for normalization of data for statistical analysis based on protein loading.

sGC [3] = target: T1, sGC (Bos taurus, UniProt P16068); conditions: reference (34), cited from earlier work
T1 sequence (P16068 1-619): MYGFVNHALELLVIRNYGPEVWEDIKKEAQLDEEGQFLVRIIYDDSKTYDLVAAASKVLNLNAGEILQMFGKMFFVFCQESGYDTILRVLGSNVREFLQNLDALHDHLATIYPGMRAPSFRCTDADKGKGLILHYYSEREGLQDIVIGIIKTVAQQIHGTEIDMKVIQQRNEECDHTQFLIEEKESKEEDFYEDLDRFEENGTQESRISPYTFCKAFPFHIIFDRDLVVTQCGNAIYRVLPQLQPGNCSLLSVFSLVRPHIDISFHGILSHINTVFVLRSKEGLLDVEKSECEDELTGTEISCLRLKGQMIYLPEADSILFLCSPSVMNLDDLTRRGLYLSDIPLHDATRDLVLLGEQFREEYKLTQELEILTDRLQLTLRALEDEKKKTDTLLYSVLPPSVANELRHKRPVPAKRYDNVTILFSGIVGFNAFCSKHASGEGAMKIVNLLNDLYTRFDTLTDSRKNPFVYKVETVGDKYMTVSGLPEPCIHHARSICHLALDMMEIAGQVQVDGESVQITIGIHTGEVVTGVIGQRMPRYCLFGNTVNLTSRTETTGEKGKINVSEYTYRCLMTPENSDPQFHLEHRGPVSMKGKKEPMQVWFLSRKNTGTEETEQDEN
T1 sequence (P19687 1-691 partner): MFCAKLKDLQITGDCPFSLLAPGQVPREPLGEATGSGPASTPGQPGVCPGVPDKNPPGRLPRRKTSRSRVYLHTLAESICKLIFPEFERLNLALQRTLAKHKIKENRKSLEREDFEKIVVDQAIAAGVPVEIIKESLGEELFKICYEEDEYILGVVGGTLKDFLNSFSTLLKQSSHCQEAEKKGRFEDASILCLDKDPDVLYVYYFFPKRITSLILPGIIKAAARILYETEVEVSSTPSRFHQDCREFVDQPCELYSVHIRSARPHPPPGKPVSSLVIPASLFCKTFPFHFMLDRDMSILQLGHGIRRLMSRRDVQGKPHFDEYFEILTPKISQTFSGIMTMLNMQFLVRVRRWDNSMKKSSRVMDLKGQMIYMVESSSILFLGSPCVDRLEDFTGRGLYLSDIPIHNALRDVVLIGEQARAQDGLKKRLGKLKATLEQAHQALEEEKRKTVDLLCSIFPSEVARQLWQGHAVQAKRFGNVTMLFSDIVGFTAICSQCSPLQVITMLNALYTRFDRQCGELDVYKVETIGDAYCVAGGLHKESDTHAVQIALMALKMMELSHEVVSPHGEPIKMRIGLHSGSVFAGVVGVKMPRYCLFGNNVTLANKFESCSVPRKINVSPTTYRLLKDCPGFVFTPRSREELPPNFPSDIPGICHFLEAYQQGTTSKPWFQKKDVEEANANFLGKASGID

bovine airways = experiment: Superoxide detection by lucigenin chemiluminescence in bovine airways; assay type: cell-based; conditions: 10 μM PDBu for 30 minutes
Description: Bovine bronchi were isolated from the same lungs used for pulmonary arteries, and studied for changes in protoporphyrin IX fluorescence and force under the same conditions as bovine pulmonary arteries described above. Superoxide was detected by the chemiluminescence produced by 5 μM lucigenin, which was detected by photon counting in a scintillation counter.

[4] = target: T2, sGC purified from bovine lungs (Bos taurus, UniProt P16068); conditions: reference (34); cited from earlier work
T2 construct: host or cells: bovine lung
T2 sequence (P16068 1-619): T1 sequence (P16068 1-619)
T2 sequence (P19687 1-691 partner): T1 sequence (P19687 1-691 partner)

[5] = test system: bovine pulmonary arteries (BPA); experiment: Protoporphyrin IX-associated tissue fluorescence in organ cultured BPA rings; assay type: cell-based
Description: as §1
Determination Changes in Protoporphyrin 1× and Heme Levels. Methods for the detection of protoporphyrin IX tissue fluorescence developed for the detection in cancerous cells with tissue depths of up to several millimeters (27) were adapted for detecting changes in the endogenous levels of protoporphyrin IX in BPA rings which were organ cultured with ALA. When excited with light in the regions of 505 and 540 nm, protoporphyrin IX has an emission in the region of 635 nm. […] Increases in protoporphyrin IX were measured using an excitation wavelength of 528±20 nm and emission of 620±40 nm in intact vessels. Ring segments of approximately equal size (˜4 mm in diameter and length) were centered on the bottom of the ˜6 mm diameter wells of a 96 well microplate with 200 μl of Krebs containing with 10 mM Hepes buffer (pH 7.4), and the fluorescence was measured from the bottom surface of the plate using BIOTEK fluorescent microplate reader (Model FLx800i). Data are reported in the arbitrary fluorescence units measured (AU), after subtraction of the low levels of background fluorescence observed in the absence of BPA.

[6] = test system: bovine pulmonary arteries (BPA); experiment: Heme content of BPA homogenates (QuantiChrom heme assay); assay type: cell-based; conditions: organ culture with 100 μM ALA and/or 100 μM Fe
Description: Heme was quantified in BPA homogenates using a QuantiChrom heme assay kit purchased from BioAssay Systems, and changes in absorbance were measured in a BIOTEK scanning microplate spectrophotometer. Briefly, segments were homogenized in 20 mM MOPS+sucrose buffer and diluted to approximately 5 mg protein/ml. Homogenates were centrifuged at 2000×g for 5 min, and 50 μl of supernatant obtained were assayed for their heme content based on the manufacture's instructions, employing measurements of changes in absorbance at 400 nm. The protein content of the supernatant was measured with Biorad protein assay kit, and tissue heme levels were reported as nanomoles/mg protein.

sGC [7] = target: T1, sGC; experiment: sGC activity in BPA homogenates (cGMP by ELISA); assay type: biochemical, bovine; parameters: Guanylate cyclase activity of homogenates of BPA was measured by enzyme immunoassay; from tissue; host or cells: BPA (pulmonary artery rings, organ cultured) homogenate; conditions: organ culture with 100 μM ALA and/or 100 μM Fe
Description: Guanylate cyclase activity of homogenates of BPA was measured by enzyme immunoassay of the amounts of cGMP generated. Briefly, BPA were pulverized in liquid nitrogen and homogenized in MOPS buffer 1:3 wt to buffer ratio at 5° C. Reaction mixture (0.2 ml final volume) contained 20 mM MOPS-KOH (pH 7.4), 0.1 mM GTP, 2 mM MgCl2, 0.3 mM of the phosphodiesterase inhibitor 3-Isobutyl-1-methylxanthine, a GTP-regenerating system consisting of 10 mM phosphocreatine and 150 U/ml creatine phosphokinase, and 0.1 ml of homogenate (11, 15), and test agents, as indicated. Assays of sGC activity were initiated by the addition of BPA homogenate. Incubations were conducted for 10 min at 37° C., and they were terminated by the addition of 0.1 ml of preheated 12 mM EDTA. This was followed by boiling the assay mixtures for 10 min and a subsequent addition of 5% trichloroacetic acid. The precipitate was removed by centrifugation and the supernatant was washed three times with water-saturated diethyl ether. Residual ether was removed by incubation at 70° C. for 5 minutes, prior to measurement of cGMP by ELISA (Cayman), as described in the manual supplied by manufacturer of the ELISA kit.

[8] = 10 μM ODQ on BPA organ cultured with 100 μM ALA
[9] = 100 μM Fe in the presence of 100 μM ALA
[10] = organ culture with 100 μM Fe alone

Compound: O=c1onc2cnc3ccccc3n12 [ODQ, 1H-[1,2,4]oxadiazolo[4,3-α]quinoxalin-1-one]
force generation to 5-HT ([1]; 10 μM ODQ alone): did not alter
decrease in contraction to 5-HT caused by ALA [1, 8]: did not alter
relaxation to the NO donor ([1]; pretreatment with 10 μM ODQ, 10 μM spermine-NONOate): markedly attenuated relaxation
VASP serine-239 phosphorylation ([2]; 10 μM ODQ alone, appeared to decrease): did not reach statistical significance
increase in VASP serine-239 phosphorylation caused by ALA [2, 8]: did not significantly alter the increase in serine-239 VASP phosphorylation
increase in VASP serine-239 phosphorylation caused by the NO donor ([2]; 10 μM ODQ with 10 μM spermine-NONOate): attenuate the increase caused by the NO donor

Compound: NCCCNCCCCN(CCCN)/[N+]([O-])=N/O [spermine-NONOate]
relaxation of organ cultured BPA ([1]; 10 μM spermine-NONOate): relaxed
VASP serine-239 phosphorylation ([2]; 10 μM spermine-NONOate): increased VASP phosphorylation

Compound: C=CC1=C(C)c2cc3[nH]c(cc4nc(cc5[nH]c(cc1n2)c(C)c5CCC(=O)O)C(CCC(=O)O)=C4C)c(C)c3C=C [protoporphyrin IX]
binding affinity for the binding site on sGC (sGC [3]): low nanomolar concentration range

Compound: CCCC(=O)O[C@@H]1[C@@H](C)[C@@]2(O)[C@@H](C=C(CO)C[C@]3(O)C(=O)C(C)=C[C@@H]23)[C@@H]2C(C)(C)[C@]12OC(=O)CCC [PDBu]
superoxide detected by 5 μM lucigenin chemiluminescence (bovine airways): causes an increase in superoxide

Compound: C=CC1=C(C)c2cc3[n-]c(cc4[n-]c(cc5nc(cc1n2)C(C)=C5C=C)c(C)c4CCC(=O)O)c(CCC(=O)O)c3C.[Fe+2] [heme]
effect on activation of sGC by protoporphyrin IX [4]: competitive inhibitor
Kd (sGC [3]; read-out: binding affinity for the binding site on sGC): ~350 nM

BPA homogenate sGC activity (sGC [7]): did not alter sGC activity
Compound: O=S(=O)([O-])[O-].[Fe+2] [Fe, FeSO4]
force generation by 5-HT [1, 9]: reversed the force attenuating effects
force generation by 5-HT [1, 10]: did not alter force generation
protoporphyrin IX fluorescence [5, 9]: reversed the increase in protoporphyrin IX fluorescence
background fluorescence of BPA [5, 10]: did not alter the background fluorescence
BPA heme levels [6]: did not reach statistical significance

Reference: patent publication US7989420B2, “Smooth muscle relaxation” (New York Medical College, priority 2006, dated 2011)
